In brackets after ≈: the same amount, converted by molar mass. Read-outs that look alike come from different tables or passages of the source.
Tests used:
[1] = test system: P. aeruginosa ATCC 27853; assay: MIC, broth microdilution; type: cell-based; conditions: Pseudomonas aeruginosa, ATCC27853, Table 1
Excerpt: (§1) The microbial strains used in this study were obtained from the collection of the Gause Institute of New Antibiotics. The control strains included in the analysis were S. aureus ATCC 29213, E. coli ATCC 25922, P. aeruginosa ATCC 27853, M. smegmatis ATCC 607. Clinical isolates E. coli MAR17-1350, K. pneumoniae APEX-5, K. pneumoniae MAR14-3395, and K. pneumoniae MAR18-1752 with multidrug resistance, including resistance to aminoglycosides were kindly provided by the Research Institute of Antimicrobial Chemotherapy (RIAC) of the Smolensk State Medical University, Smolensk. The microbial cultures were stored at −75 °C in trypticase soy broth (Becton, Dickinson, France) containing 10–15% glycerol. Storage was carried out in accordance with CLSI guidelines. Prior to experimentation, the bacterial strains were revived from cryopreservation by inoculating them onto trypticase soy agar (Becton, Dickinson, France) and incubating at (36 ± 1) °C for 16–24 h. Individual morphologically homogeneous colonies were then suspended in sterile physiological saline, and the turbidity of the suspension was adjusted to 0.5 McFarland units using a DEN-1 spectrophotometer (Biosan, Riga, Latvia), which corresponds to a concentration of 1.5 × 10^8 CFU/mL.
(§2) The samples were dissolved in sterile distilled water, depending on the physicochemical properties of the compounds under investigation, to a concentration of 10,000 µg/mL. Working solutions were then prepared by serial dilution, resulting in concentrations ranging from 64 µg/mL to 0.125 µg/mL.
(§3) Activity was evaluated by determining the minimum inhibitory concentration (MIC) values using the microdilution method in Mueller–Hinton Broth (Beckton and Dickinson, Le Pont-de-Claix, France), in accordance with the standard procedure for assessing the antimicrobial susceptibility of microorganisms.
(§4) The analysis was conducted in 96-well microtiter plates (Medpolymer, Saint Petersburg, Russia). The bacterial inoculum was introduced within 15 min of preparation. MIC values were determined after incubation for 15–18 h at (36 ± 1) °C. Microbial growth in the presence of the tested compounds was compared to the growth control (without exposure to the test samples). The MIC was defined as the lowest concentration at which visible microbial growth was inhibited.
(§5) To ensure the accuracy of the results, the control antibiotics kanamycin A, gentamycin, and tobramycin (Abcr GmbH, Karlsruhe, Germany) were included, along with standard reference strains: E. coli ATCC 25922. The MIC values for kanamycin A were determined as follows: E. coli ATCC 25922—1–4 µg/mL [22]. For gentamycin, the MIC values were E. coli ATCC 25922–0.25–1 µg/mL [23]. For tobramycin, the MIC values were E. coli ATCC 25922–0.25–1 µg/mL [23]. The MIC values of the reference strains were required to fall within the acceptable ranges specified in [24], provided that standard assay conditions were maintained.

[2] = test system: S. aureus ATCC 29213; assay: MIC, broth microdilution; type: cell-based; conditions: Staphylococcus aureus, ATCC29213, Table 1
Excerpt: as §1, §2, §3, §4, §5

[3] = test system: E. coli ATCC 25922; assay: MIC, broth microdilution; type: cell-based, Escherichia coli
Excerpt: as §1, §2, §3, §4, §5

[4] = test system: M. smegmatis ATCC 607; assay: MIC, broth microdilution; type: cell-based, Mycobacterium smegmatis; conditions: Mycolicibacterium smegmatis, ATCC607, Table 1
Excerpt: as §1, §2, §3, §4, §5

[5] = test system: E. coli MAR17-1350; assay: MIC, MDR clinical isolate; type: cell-based; conditions: E. coli MAR17-1350, MDR clinical isolate (NDM-5)
Excerpt: as §1, §2, §3, §4, §5

[6] = test system: K. pneumoniae APEX-5; assay: MIC, MDR clinical isolate; type: cell-based; conditions: K. pneumoniae APEX-5, MDR clinical isolate (NDM-16)
Excerpt: as §1, §2, §3, §4, §5

[7] = test system: K. pneumoniae MAR14-3395; assay: MIC, MDR clinical isolate; type: cell-based; conditions: K. pneumoniae MAR14-3395, MDR clinical isolate (NDM-1 + OXA-244)
Excerpt: as §1, §2, §3, §4, §5

[8] = test system: K. pneumoniae MAR18-1752; assay: MIC, MDR clinical isolate; type: cell-based; conditions: K. pneumoniae MAR18-1752, MDR clinical isolate (NDM-1)
Excerpt: as §1, §2, §3, §4, §5

[9] = test system: E. coli JW5503 kanS; assay: MIC against E. coli JW5503 parent strain; type: cell-based
Experimental: (§6) The determination of the MIC values was performed on five strains from the working collection of MSU. E. coli JW5503 [25], which lacked a kanamycin resistance cassette that had been removed as per the method outlined in [26], and a strain derived from this strain through in vitro selection with kanamycin. […] Strains containing AG-modifying enzymes were obtained through the transformation of E. coli JW5503 with plasmids that carried cassettes of resistance, namely pCRISPomyces-2–AAC(3)-IV (Addgene #61737), pdualrep2–APH(3′)-II [27] and pt67–ANT(3″). The MIC determination was performed as described for JW5503 in [19].

[10] = test system: E. coli JW5503 EF-G P610T; assay: MIC against aminoglycoside-resistant EF-G mutant; type: cell-based
Experimental: as §6

[11] = test system: E. coli JW5503 KanR; assay: MIC against transformant carrying APH(3′)-II; type: cell-based
Experimental: as §6

[12] = test system: E. coli JW5503 SmR; assay: MIC against transformant carrying ANT(3″); type: cell-based
Experimental: as §6

[13] = test system: E. coli JW5503 ApmR; assay: MIC against transformant carrying AAC(3)-IV; type: cell-based
Experimental: as §6

[14] = test system: E. coli JW5503 with pJC27 β-galactosidase codon 537 reporter; assay: Translation accuracy using β-galactosidase reporters; type: cell-based; conditions: 0.1 μL of 50 mg/mL, 37 °C, 18 h, codon 537 GAC/GGG reporters
Experimental: To evaluate translation accuracy in the presence of antibiotics, E. coli JW5503 (kanamycin resistance cassette removed as per) was transformed with pJC27 plasmids. […] The synthesis of active β-galactosidase depends on translation errors occurring (when codons GAC and GGG are read as GAA). Petri dishes (9 cm) containing 20 mL of solid LB agar (1.5%), supplemented with chloramphenicol (11.3 μg/mL) and X-Gal (80 μg/mL), were prepared. A secondary soft-agar layer comprising 3.5 mL of LB agar (0.6%) supplemented with 11.3 μg/mL chloramphenicol and 0.5 mL of liquid culture (A600~1.0) was added and allowed to solidify. Antibiotics were applied to the plates in 0.1 μL aliquots at a concentration of 50 mg/mL for tobramycin, streptomycin, kanamycin, and apramycin, and for 5a, 5b, 8a, and 8b. The plates were then incubated at 37 °C for 18 h. […] The results were documented using a Samsung Galaxy Tab A71 camera.

[15] = test system: HEK293T human embryonic kidney cell line; assay: Cytotoxicity, MTT test; type: cell-based; conditions: HEK-293T, 72 h, 2-250 µg/mL, read-out: IC50, viability of HEK293T cells
Experimental: The MTT test was performed in order to evaluate the effect of the compounds on eukaryotic cells’ survivability. Compounds 5a,b, 8a,b, and apramycin, as the reference drug, were tested on HEK293T human embryonic kidney cell line (ATCC). Compounds 5a,b, 8a,b, and apramycin were prepared as water solutions with a 50 mg/mL concentration. The HEK293T cell line was cultivated in DMEM/F-12 medium (Paneco LLC, Moscow, Russia) containing 10% FBS, 50 µg/mL penicillin, and 50 µg/mL streptomycin (Thermo Fisher Scientific, USA) at 37 °C in 5% CO2. Triplicates on 96-well plates were used, and 2500 HEK293T cells were seeded in 140 µL of DMEM/F-12 medium in each well during day one. The next day, compounds in twofold successive dilutions were added to these plates (concentrations in wells ranged between 2 and 250 µg/mL for 5a, 5b, and 8a, 8b). Plates were incubated for 72 h at 37 °C in 5% CO2. Afterwards, 0.5 mg/mL of the MTT reagent (Paneco LLC, Moscow, Russia) was added to each well. After 2 h of incubation, the media with MTT was replaced with 140 µL of DMSO, and all plates were placed on a shaker for 10 min for formazan to dissolve. Finally, the absorbance at a 555 nm wavelength was measured on all plates via the plate reader Victor X5 (PerkinElmer, Waltham, MA, USA). The data were then normalized, and dose–response curves and IC50 were calculated by means of GraphPad Prism version 8.0.2. (GraphPad Software, Inc., San Diego, CA, USA).

[16] = test system: E. coli ATCC 25922; conditions: E. coli ATCC 25922, reference strain quality control; cited from earlier work
[17] = Escherichia coli, MAR171350, read-out: MIC
[18] = Klebsiella pneumoniae, APEX5, read-out: MIC
[19] = Klebsiella pneumoniae, MAR143395, read-out: MIC
[20] = Klebsiella pneumoniae, MAR181752, read-out: MIC

| Compound | MIC [5, 17] | MIC [6, 18] | MIC [7, 19] | MIC [8, 20] | MIC ([9]; Escherichia coli, JW5503KANS) | MIC ([10]; Escherichia coli) | MIC ([11]; Escherichia coli, JW5503KANR) | MIC ([12]; Escherichia coli, JW5503SMR) | MIC ([13]; Escherichia coli, JW5503APMR) | MIC, control antibiotic range [16] | other results |
| --- | --- | --- | --- | --- | --- | --- | --- | --- | --- | --- | --- |
| CN[C@@H]1[C@@H](O[C@H]2O[C@H](CO)[C@@H](N)[C@H](O)[C@H]2O)OC2C[C@@H](N)[C@@H](O[C@H]3[C@H](O)[C@@H](O)[C@H](N)C[C@@H]3N)OC2[C@@H]1O (stereo partly drawn) [Apramycin (1), apramycin] | 4 µg/mL (≈ 7.41 µM) | 1 µg/mL (≈ 1.85 µM) | 1 µg/mL | 1 µg/mL (≈ 1.85 µM) | 8 µg/mL (≈ 14.8 µM) | 64 µg/mL (≈ 119 µM) | 4 µg/mL (≈ 7.41 µM) | 8 µg/mL (≈ 14.8 µM) | > 256 µg/mL |  | MIC [1]: 2 µg/mL (≈ 3.71 µM); MIC [2]: 1 µg/mL (≈ 1.85 µM); MIC ([3]; Escherichia coli, ATCC25922, Table 1, read-out: MIC): 1 µg/mL (≈ 1.85 µM); MIC [4]: 0.125 µg/mL (≈ 0.232 µM); induction of translation errors (blue staining at edge of inhibition zone) [14]: blue staining; IC50 [15]: > 250 µg/mL |
| [H]/N=C(/N)N[C@H]1[C@H](O)[C@@H](O)[C@H](O[C@@H]2O[C@@H](C)[C@](O)(C=O)[C@H]2O[C@@H]2O[C@@H](CO)[C@H](O)[C@@H](O)[C@@H]2NC)[C@@H](N/C(N)=N\[H])[C@@H]1O [Streptomycin, streptomycin, reference compound] |  |  |  |  | 4 µg/mL (≈ 6.88 µM) | 8 µg/mL (≈ 13.8 µM) | 4 µg/mL (≈ 6.88 µM) | > 256 µg/mL | 4 µg/mL (≈ 6.88 µM) |  |  |
| NC[C@H]1O[C@H](O[C@H]2[C@H](O)[C@@H](O[C@H]3O[C@H](CO)[C@@H](O)[C@H](N)[C@H]3O)[C@H](N)C[C@@H]2N)[C@H](N)C[C@@H]1O [Tobramycin, tobramycin, reference compound] | > 128 µg/mL | 32 µg/mL (≈ 68.4 µM) | > 128 µg/mL | > 128 µg/mL | 2 µg/mL (≈ 4.28 µM) | 16 µg/mL (≈ 34.2 µM) | 2 µg/mL (≈ 4.28 µM) | 4 µg/mL (≈ 8.56 µM) | > 256 µg/mL | 0.25 to 1 µg/mL | MIC ([3]; Escherichia coli, ATCC25922, Table 2, read-out: MIC): 0.5 µg/mL (≈ 1.07 µM) |
| kanamycin A [reference compound] |  |  |  |  |  |  |  |  |  | 1 to 4 µg/mL | MIC ([3]; Table 2): 2 µg/mL; MIC [5]: >128 µg/mL; MIC [6]: >128 µg/mL; MIC [7]: >128 µg/mL; MIC [8]: >128 µg/mL; MIC ([9]; E. coli JW5503 kanS (parent strain)): 4 µg/mL; MIC ([10]; E. coli JW5503 EF-G P610T (fusA mutant)): 64 µg/mL; MIC ([11]; E. coli JW5503 KanR, APH(3′)-II on plasmid): >256 µg/mL; MIC ([12]; E. coli JW5503 SmR, ANT(3″) on plasmid): 8 µg/mL; MIC ([13]; E. coli JW5503 ApmR, AAC(3)-IV on plasmid): 32 µg/mL |
